Measurements from the NIST ThermoML archive (doi:10.1021/je060339m).

Settings: Liquid

CCOC(C)=O [ethyl acetate]
mass density [kg/m3]
Settings	298.15 K	303.15 K	308.15 K	313.15 K	318.15 K	323.15 K	328.15 K	333.15 K	338.15 K	343.15 K
100 kPa	894	887.6	881.4	875.2	868.8	862.7	856.4	850.4	844	837.5
1000 kPa	894.7	888.5	882.3	876.1	869.8	864	857.8	851.7	845.4	839.1
2000 kPa	895.7	889.5	883.3	877.2	871	865.1	859.2	853	846.8	840.6
3000 kPa	896.7	890.5	884.4	878.3	872.2	866.2	860.5	854.4	848.2	842
3800 kPa	897.4	891.3	885.3	879.2	873.1	867.1	861.5	855.4	849.3	843.2
5000 kPa	898.8	892.7	886.7	880.6	874.5	868.6	862.5	856.8	850.8	844.5
10000 kPa	903.4	897.5	891.7	885.8	880	874.2	868.4	862.9	857.1	851.2
15000 kPa	907.7	902	896.4	890.7	885.1	879.4	873.9	868.5	863	–
20000 kPa	912	906.3	900.9	895.4	889.8	884.3	879	873.8	868.5	–
25000 kPa	916.1	910.7	905.4	899.8	894.5	889.2	884.1	879	873.9	–
30000 kPa	921.1	915.9	910.7	905.3	900.1	895	890.1	885.2	880.3	–
35000 kPa	926.3	921.2	916.2	910.9	905.9	900.9	896.2	891.4	886.7	–
